# pEC50: −log10 of the molar value.
# Target: GLP-1R (Homo sapiens, UniProt P43220)
# Test: GLP-1R agonist cAMP stimulation assay (HTRF cAMP)
# Assay type: cell-based
# Conditions: HEK293 cell line expressing GLP-1 target; HTRF cAMP agonist mode, 30 min at RT
# Procedure, shortened: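 Read-out was HTRF (665/615 ratio), interpolated onto a cAMP standard curve and normalised to DMSO (0%) and maximal GLP-1(7-37) reference (100%) wells. Assay: GLP-1R cells at 1.0×E5/mL incubated with compound dilution series (3-fold, 10 points) for 30 min at room temperature before 60 min detection.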
# GLP-1R, sequence (P43220 24-463): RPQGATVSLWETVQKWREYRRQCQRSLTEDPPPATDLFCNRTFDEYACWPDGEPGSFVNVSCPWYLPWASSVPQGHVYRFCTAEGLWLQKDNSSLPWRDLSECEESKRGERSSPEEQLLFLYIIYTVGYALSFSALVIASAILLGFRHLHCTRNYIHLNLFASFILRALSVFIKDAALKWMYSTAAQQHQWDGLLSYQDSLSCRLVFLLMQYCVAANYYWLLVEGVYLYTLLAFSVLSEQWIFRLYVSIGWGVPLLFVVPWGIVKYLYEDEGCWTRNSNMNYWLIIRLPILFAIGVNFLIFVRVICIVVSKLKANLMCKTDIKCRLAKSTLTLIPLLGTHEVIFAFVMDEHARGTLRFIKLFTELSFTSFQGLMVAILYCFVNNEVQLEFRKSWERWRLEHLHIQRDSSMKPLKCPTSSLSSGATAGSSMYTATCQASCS
row,Compound,pEC50
1,Cn1c(=O)[nH]c2ccc(NC(=O)c3ccc4c(c3)nc(CN3CCC(c5cccc(OCc6ccc(Cl)cc6F)n5)CC3)n4C[C@@H]3CCO3)cc21 [Compound 91],7.58
2,Cc1n[nH]c2ccc(NC(=O)c3ccc4c(c3)nc(CN3CC=C(c5cccc(OCc6ccc(Cl)cc6F)n5)CC3)n4C[C@@H]3CCO3)nc12 [Compound 191],8.43
3,O=C(Nc1ccc2[nH]ncc2c1)c1ccc2c(c1)nc(CN1CC=C(c3cccc(OCc4ccc(Cl)cc4F)n3)CC1)n2C[C@@H]1CCO1 [Compound 141],8.48
4,Cc1n[nH]c2c(Cl)cc(NC(=O)c3ccc4c(c3)nc(CN3CC=C(c5cccc6c5OC(C)(c5ccc(Cl)cc5F)O6)CC3)n4CC3CCO3)cc12 (stereo not shown) [Compound 293],9.00
5,COCCn1c(CN2CCC(c3cccc(OCc4ccc(Cl)cc4F)n3)CC2)nc2cc(C(=O)Nc3ccc(O)cc3)ccc21 [Compound 75],< 5.00
6,N#Cc1ccc(COc2cccc(C3=CCN(Cc4nc5cc(NC(=O)c6cc(F)c7c(c6)C6(CC6)C(=O)N7)ccc5n4C[C@@H]4CCO4)CC3)n2)c(F)c1 [Compound 226],9.92
7,Cc1n[nH]c2c(Cl)cc(NC(=O)c3ccc4c(c3)nc(CN3CC=C(c5cccc6c5O[C@@](C)(c5ccc(Cl)cc5F)O6)C[C@@H]3C)n4CC3CCO3)cc12 (stereo partly shown) [Compound 329],8.78
8,Cc1n[nH]c2c(C)cc(C(=O)Nc3ccc4c(c3)nc(Cc3ccc(-c5cccc6c5OC(C)(c5ccc(C#N)cc5F)O6)cc3F)n4CC3CCO3)cc12 (stereo not shown) [Compound 317],9.49
9,N#Cc1ccc(COc2cccc(C3=CCN(Cc4nc5cc(C(=O)Nc6ccc7[nH]nc(C(F)(F)F)c7c6)ccc5n4C[C@@H]4CCO4)CC3)n2)c(F)c1 [Compound 184],8.80
10,O=C(Nc1ccc2c(c1)nc(CN1CC=C(c3cccc(OCc4ccc(Cl)cc4F)n3)CC1)n2C[C@@H]1CCO1)c1ccc2[nH]ccc2c1 [Compound 393],7.82
11,CC1(c2ccc(Cl)cc2F)Oc2cccc(C3=CCN(Cc4nc5cc(C(=O)Nc6ccc7[nH]nc(F)c7c6)ccc5n4CC4CCO4)CC3)c2O1 (stereo not shown) [Compound 328],7.90
12,N#Cc1ccc(COc2cccc(C3CCN(Cc4nc5cc(C(=O)NCC(=O)N6C[C@@H](F)C[C@H]6C(=O)O)ccc5n4C[C@@H]4CCO4)CC3)n2)c(F)c1 [Compound 44],8.36
13,Cc1n[nH]c2cc(F)c(NC(=O)c3ccc4c(c3)nc(CN3CC=C(c5cccc(OCc6ccc(Cl)cc6F)n5)CC3)n4C[C@@H]3CCO3)cc12 [Compound 174],8.67
14,O=C(Nc1ccn2ncc(Cl)c2c1)c1ccc2c(c1)nc(CN1CC=C(c3cccc(OCc4ccc(Cl)cc4F)n3)CC1)n2CC1CCO1 (stereo not shown) [Compound 149],7.46
15,O=C(Nc1nc2[nH]cnc2o1)c1ccc2c(c1)nc(CN1CC=C(c3cccc(OCc4ccc(Cl)cc4F)n3)CC1)n2C[C@@H]1CCO1 [Compound 404],7.70
16,O=C(Nc1ccc2c(c1)nc(C1CC13CCN(c1cccc(OCc4ccc(Cl)cc4F)n1)CC3)n2C[C@@H]1CCO1)c1cc(F)c2c(c1)C1(CC1)C(=O)N2 (stereo partly shown) [Compound 254],8.72
17,O=C(Nc1cc(C(F)(F)F)c2[nH]nc(C3CC3)c2c1)c1ccc2c(c1)nc(CN1CCC(c3cccc(OCc4ccc(Cl)cc4F)n3)CC1)n2C[C@@H]1CCO1 [Compound 113],8.36
18,COc1n[nH]c2ccc(NC(=O)c3ccc4c(c3)nc(CN3CCC(c5cccc(OCc6ccc(Cl)cc6F)n5)CC3)n4C[C@@H]3CCO3)cc12 [Compound 81],7.84
19,Cc1nc2ccc(NC(=O)c3ccc4c(c3)nc(CN3CCC(c5cccc(OCc6ccc(Cl)cc6F)n5)CC3)n4C[C@@H]3CCO3)cc2s1 [Compound 95],7.21
20,CCc1n[nH]c2ccc(C(=O)Nc3ccc4c(c3)nc(CN3CC=C(c5cccc6c5OC(C)(c5ccc(C#N)cc5F)O6)CC3)n4CC3CCO3)cc12 (stereo not shown) [Compound 310],9.03
21,O=C(NCc1ccc(O)cc1)c1ccc2c(c1)nc(CN1CCC(c3cccc(OCc4ccc(Cl)cc4F)n3)CC1)n2C[C@@H]1CCO1 [Compound 24],7.05
22,O=C(Nc1ccn2nccc2c1)c1ccc2c(c1)nc(CN1CCC(c3cccc(OCc4ccc(Cl)cc4F)n3)CC1)n2CC1CCO1 (stereo not shown) [Compound 96],7.13

# Reference: US20230271949A1, “GLP-1R MODULATING COMPOUNDS” (ASCLETIS BIOSCIENCE CO., LTD., priority 2022, published 2023)
